Measurements as given in PubChem BioAssay (NCI).
Several values for one entry are separate records, joined by “and”; a condition that tells them apart may be missing. Equal entries are not always repeated.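 Cells were grown in 96-well plates and exposed to each compound for 48 hours at five concentrations; endpoints were interpolated linearly between bracketing concentrations, or set to the highest concentration if not reached. At the GI50, growth is halved. TGI: total growth inhibition.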

What was measured:
Assay in all cases: NCI anticancer screen, dose series, 48 h
ACHN renal = test system: ACHN renal
LOX IMVI melanoma = test system: LOX IMVI melanoma
TK-10 renal = test system: TK-10 renal
CCRF-CEM leukemia = test system: CCRF-CEM leukemia
BT-549 breast = test system: BT-549 breast
T-47D breast = test system: T-47D breast
EKVX NSCLC = test system: EKVX NSCLC
SNB-75 CNS = test system: SNB-75 CNS
KM12 colon = test system: KM12 colon
SF-539 CNS = test system: SF-539 CNS

| Compound | GI50 (ACHN renal) | TGI (ACHN renal) | GI50 (LOX IMVI melanoma) | TGI (LOX IMVI melanoma) | GI50 (TK-10 renal) | TGI (TK-10 renal) | GI50 (CCRF-CEM leukemia) | TGI (CCRF-CEM leukemia) | GI50 (BT-549 breast) | TGI (BT-549 breast) | GI50 (T-47D breast) | TGI (T-47D breast) | GI50 (EKVX NSCLC) | TGI (EKVX NSCLC) | GI50 (SNB-75 CNS) | TGI (SNB-75 CNS) | GI50 (KM12 colon) | TGI (KM12 colon) | GI50 (SF-539 CNS) | TGI (SF-539 CNS) |
| --- | --- | --- | --- | --- | --- | --- | --- | --- | --- | --- | --- | --- | --- | --- | --- | --- | --- | --- | --- | --- |
| CC(=O)Oc1cc2c(OC(C)=O)c(-c3c(C)cc4c(C(C)C)c(OC(C)=O)c(OC(C)=O)cc4c3OC(C)=O)c(C)cc2c(C(C)C)c1OC(C)=O | 5.56 µM and 4.86 µM and 8.79 µM | 13.2 µM and 11.6 µM and 22.8 µM | 4.4 µM and 5.26 µM and 17.3 µM | 8.52 µM and 11.3 µM and 32 µM | 7.37 µM and 5.6 µM and 16.2 µM | 21.9 µM and 17.4 µM and > 42.8 µM | 0.707 µM and 5.41 µM and 5.98 µM | 4.04 µM and 15.6 µM and 20.7 µM | 4.07 µM and 5.16 µM and 9.94 µM | 9.05 µM and 10.2 µM and 26.6 µM | > 100 µM and 10.2 µM and 19.1 µM | > 100 µM and > 25.2 µM and 36.1 µM | 4.82 µM and 4.81 µM and 9.21 µM | 10.6 µM and 9.92 µM and 26.7 µM | 2.32 µM and 13.7 µM and 16.3 µM | 24.9 µM and > 52.7 µM and 62.8 µM | 4.83 µM and 5.02 µM and 9.12 µM | 10.6 µM and 10.2 µM and 21.3 µM | 6.52 µM and 5.37 µM and 12.5 µM | 12.5 µM and 10.5 µM and 31.3 µM |
| O=C(NCc1ccncc1)C12CC3CC(C1)CC(c1ccc(Cl)cc1)(C3)C2 | 12.5 µM | 25 µM | 15 µM | 30.1 µM | 15.3 µM | 29.5 µM | 17.7 µM | 45 µM | 10.6 µM | 26.4 µM | 6.88 µM | 27.5 µM | 11.6 µM | 26.3 µM | 13.2 µM | 27.2 µM | 13.6 µM | 27.8 µM | 14.1 µM | 28.1 µM |
| CC(=O)C1(N=Nc2ccc(S(N)(=O)=O)cc2)CCOC1=O (stereo not given) | – | > 100 µM | – | > 100 µM | – | > 100 µM | – | > 100 µM | – | > 100 µM | – | > 100 µM | – | > 100 µM | – | > 100 µM | – | > 100 µM | – | > 100 µM |
| CN(C)CCCNC(=O)c1cncnc1Nc1ccc(OCc2cccc(F)c2)c(Cl)c1 | 1.7 µM | 3.06 µM | 1.44 µM | 2.81 µM | 1.84 µM | 3.48 µM | 1.82 µM | 3.94 µM | 1.59 µM | 3.06 µM | 1.82 µM | 4.28 µM | 1.58 µM | 3.15 µM | 1.64 µM | 3.22 µM | 1.74 µM | 3.33 µM | 1.77 µM | 3.15 µM |
| COc1cnc2c(c1)C(=O)c1c-2n(CCCNC(C)C)c(=O)c2cc(F)ccc12 | 0.0565 µM | 0.229 µM | 0.114 µM | 0.249 µM | 0.178 µM | 0.623 µM | 0.111 µM | 10.7 µM | 0.655 µM | 4.09 µM | 0.0846 µM | 0.651 µM | 0.299 µM | 1.73 µM | 0.219 µM | 1.39 µM | 0.165 µM | 0.851 µM | 0.245 µM | 0.703 µM |
| O=c1c2ccccc2c2ccccc2c(=O)n1Cc1ccc2c(c1)OCO2 | – | > 100 µM | – | > 100 µM | – | > 100 µM | – | 93.2 µM | – | 88.7 µM | – | > 100 µM | – | > 100 µM | – | > 93.6 µM | – | > 100 µM | – | > 94.5 µM |
| CCCCCCCCCCCCCCCCOP(=O)(O)OP(=O)(O)OCC1OC(n2ccc(N)nc2=O)C(O)C1O (stereo not given) | – | > 100 µM | > 100 µM and 28.3 µM | > 100 µM | – | > 100 µM | – | > 100 µM | – | > 100 µM | – | > 100 µM | – | > 100 µM | > 100 µM | > 100 µM | – | > 100 µM | – | > 100 µM |
| COC(=O)/C=C/c1cn(C(C)=O)c2ccc(Br)cc12 | 29.4 µM | > 100 µM | 17.9 µM | > 77.9 µM | 24.7 µM | 71.4 µM | 1.44 µM | > 100 µM | 17.2 µM | 83.6 µM | 23.4 µM | > 100 µM | 28.2 µM | > 100 µM | 16.1 µM | 55.2 µM | 25.3 µM | 79.5 µM | 29.9 µM | > 100 µM |
| CC1=C([Te]c2ccc(O)cc2)C(=O)c2ccccc2C1=O | 1.54 µM | 3.85 µM | 1.69 µM | 4.35 µM | 2.67 µM | 7.6 µM | 0.806 µM | 4.38 µM | 0.448 µM | 4.22 µM | 1.1 µM | 3.25 µM | 0.428 µM | 6.58 µM | 1.31 µM | 9.02 µM | 1.3 µM | 3.27 µM | 1.8 µM | 4.23 µM |
| CCc1cc2c(cc1N1CCC(N3CCOCC3)CC1)C(C)(C)c1[nH]c3cc(C#N)ccc3c1C2=O | 1.92 µM and 1.54 µM and 1.41 µM | 4.54 µM and 3.35 µM and 4.67 µM | 1.63 µM and 1.73 µM and 1.52 µM | 6.38 µM and 5.47 µM and 4.19 µM | 1.66 µM and 1.71 µM and 1.42 µM | 3.61 µM and 3.95 µM and 3.05 µM | 0.745 µM and 0.826 µM and 1.54 µM | > 100 µM | 1.49 µM and 1.6 µM | 3.69 µM and 3.87 µM | 2.2 µM and 1.94 µM and 2.18 µM | 10.9 µM and 5.32 µM and > 10 µM | 1.56 µM and 2.04 µM | 6.85 µM and > 10 µM | 1.03 µM and 1.25 µM and 1.38 µM | 2.63 µM and 2.73 µM and 2.9 µM | 0.336 µM and 0.345 µM and 0.347 µM | 5.36 µM and 3.41 µM and > 10 µM | 1.8 µM and 1.58 µM and 1.62 µM | 3.92 µM and 3.43 µM and 3.86 µM |
| CCc1ccc2c(c1)N(CCO)C1=C(C(=O)OC1)C2c1cccc(Cl)c1 (stereo not given) | 1.24 µM | 31.6 µM | 0.684 µM | 17.7 µM | 6.69 µM | 28.8 µM | 0.739 µM | 32 µM | 1.98 µM | 18.7 µM | 0.583 µM | 26.4 µM | 5.33 µM | 31.1 µM | 0.395 µM | 14.6 µM | 0.433 µM | 12.6 µM | 0.488 µM | 11.4 µM |
| COc1cc(OC)c(NC(=O)c2cc3ccccc3cc2O)cc1Cl | 2.51 µM | 7.19 µM | 2.69 µM | 9.37 µM | 3.15 µM | 8.57 µM | – | – | 4.33 µM | 66 µM | 2.29 µM | > 100 µM | 2.22 µM | 28 µM | 1.59 µM | 15 µM | 3.07 µM | 11.4 µM | 3.04 µM | 12.9 µM |
| C[C@H]1[C@H]2[C@H]3CC[C@@H]4[C@@]5(C)C/C(=C/c6cccnc6)C(=O)C(C)(C)[C@@H]5CC[C@@]4(C)[C@]3(C)CC[C@]23CO[C@]1(C)[C@@H](C(=O)/C=C\c1cccnc1)C3 | 1.49 µM | 4.81 µM | 0.783 µM | 1.57 µM | 1.72 µM | 8.21 µM | 0.44 µM | > 50 µM | 0.785 µM | 1.83 µM | 1.98 µM | > 50 µM | 1.56 µM | 6.4 µM | 0.99 µM | 3.69 µM | 0.892 µM | 1.86 µM | 1.03 µM | 2.31 µM |
